The structures appear in SMILES notation.

The assay deals with HIV integrase (Human immunodeficiency virus type 1 group M subtype B, UniProt P04585). The experiment in a line: HIV integrase inhibitory activity assay (strand transfer, immunoplate, OD405). It is filed as biochemical. Particulars: HIV integrase inhibition rate, absorbance OD405 nm. As for the experimental part: The HIV integrase inhibitory activity was investigated based on the following assay method.
(1) Preparation of DNA Solution
By the same method as that described in Experimental Example 1 of WO 2004/024693, a substrate DNA solution (2 μmol/μl) and a target DNA solution (5 μmol/μl) were prepared. […] Each sequence of a substrate DNA and a target DNA is as described in the same Experimental Example.
(2) Measurement of Inhibition Rate (IC50 Value)
Streptavidin (manufactured by Vector Laboratories) was dissolved in a 0.1 M carbonate buffer solution (composition: 90 mM Na2CO3, 10 mM NaHCO3) to a concentration of 40 μg/ml. Each 50 μl of this solution was added to a well of an immunoplate (manufactured by NUNC), and this is allowed to stand at 4° C. overnight to adsorb. Then, each well was washed with a phosphate buffer (composition: 13.7 mM NaCl, 0.27 mM KCl, 0.43 mM Na2HPO4, 0.14 mM KH2PO4) two times, and 300 μl of a phosphate buffer containing 1% skim milk was added to block it for 30 minutes. Further, each well was washed with a phosphate buffer two times, […] of a substrate DNA solution (2 μmol/μl) was added to adsorb at room temperature for 30 minutes while shaking, and this was washed with a phosphate buffer two times and, then, distilled water once.
Then, to each well prepared as described above were added 12 μl of a buffer (composition: 150 mM MOPS (pH7.2), 75 mM MnCl2, 50 mM 2-mercaptoethanol, 25% glycerol, 500 μg/ml bovine serum albumin-fraction V), and 51 μl of a reaction solution prepared from […] of distilled water. Then, 9 μl of an integrase solution (30 μmol) was added, and the mixture was mixed well. To a well as a negative control (NC) was added 9 μl of a diluting solution (composition: 20 mM MOPS (pH7.2), 400 mM potassium glutamete, 1 mM EDTA, 0.1% NP-40, 20% glycerol, 1 mM DTT, 4 M urea), and this was mixed well using a plate mixer.
After the plate was incubated at 30° C. for 60 minutes, the reaction solution was discarded, followed by washing with 250 μl of a washing buffer (composition: 150 mM MOPS (pH7.2), 50 mM 2-mercaptoethanol, 25% glycerol, 500 μg/ml bovine serum albumin-fraction V) three times.
Then, to each well were added 12 μl of a buffer (composition: 150 mM MOPS (pH7.2), 75 mM MgCl2, 50 mM 2-mercaptoethanol, 25% glycerol, 500 μg/ml bovine serum albumin-fraction V), and 53 μl of a reaction solution prepared from 41 μl of distilled water. Further, 6 μl of a solution of a test compound in DMSO was added to each well, and 6 μl of DMSO was added to a well as a positive control (PC), followed by mixing well using a plate mixer. […]
C abs.; absorbance of well of compound
NC abs.: absorbance of NC
PC abs.: absorbance of PC
The molecule `CN1CN(C[C@@H]2CCCO2)C(=O)c2c(O)c(=O)c(C(=O)NCc3ccc(F)cc3F)cn21` [Example N-15, 5-Hydroxy-1-methyl-4,6-dioxo-3-[(S)-1-(tetrahydro-furan-2-yl)methyl]-2,3,4,6-tetrahydro-1H-pyrid[2,1-f][1,2,4]triazine-7-carboxylic acid 2,4-difluoro-benzylamide] returned an IC50 of 3.3 nM.

In the case of `O=C(NCc1ccc(F)cc1F)c1cn2c(c(O)c1=O)C(=O)N(CCN1CCOCC1)CN2` [Example O-07, 5-Hydroxy-3-(2-morpholin-4-yl-ethyl)-4,6-dioxo-2,3,4,6-tetrahydro-1H-pyrid[2,1-f][1,2,4]triazine-7-carboxylic acid 2,4-difluoro-benzylamide], the IC50 turned out to be 4.8 nM.

The molecule `CN1CN(C[C@H]2CCCO2)C(=O)c2c(O)c(=O)c(C(=O)NCc3ccc(F)cc3F)cn21` [Example N-16, 5-Hydroxy-1-methyl-4,6-dioxo-3-[(R)-1-(tetrahydro-furan-2-yl)methyl]-2,3,4,6-tetrahydro-1H-pyrid[2,1-f][1,2,4]triazine-7-carboxylic acid 2,4-difluoro-benzylamide] registered an IC50 of 2.6 nM.

The molecule `O=C(NCc1ccc(F)cc1F)c1cn2c(c(O)c1=O)C(=O)N(C[C@@H]1CCCO1)CN2` [Example O-06, 5-Hydroxy-4,6-dioxo-3-[(S)-1-(tetrahydro-furan-2-yl)methyl]-2,3,4,6-tetrahydro-1H-pyrid[2,1-f][1,2,4]triazine-7-carboxylic acid 2,4-difluoro-benzylamide] showed an IC50 of 3.8 nM.

The term IC50 denotes the concentration at which inhibition is half-maximal.

Values taken from patent US8188271B2, “Polycyclic carbamoylpyridone derivative having HIV integrase inhibitory activity” (Shionogi & Co., Ltd., priority 2005, dated 2012).
